This is an account of results in patent publication US20250230193A1, “CYCLIC COMPOUND HAVING SELECTIVE KRAS INHIBITORY EFFECT ON HRAS AND NRAS” (CHUGAI SEIYAKU KABUSHIKI KAISHA, priority 2022, published 2025).

Where a SMILES comes first, the peptide text is derived from it. Bridges are numbered along the chain shown (N, C = ends). [ ]: non-standard residue; d: D form. hPhe(3-Cl-4-CF3) = N[C@@H](CCc1ccc(C(F)(F)F)c(Cl)c1)C(=O)O; NPrPhe(4-CF3) = CCCN[C@@H](Cc1ccc(C(F)(F)F)cc1)C(=O)O; NMeGly(cPent) = CN[C@H](C(=O)O)C1CCCC1; Pro(4,4-F2) = O=C(O)[C@@H]1CC(F)(F)CN1; NMeD = CN[C@@H](CC(=O)O)C(=O)O; NMeL = CN[C@@H](CC(C)C)C(=O)O; Ac5c = NC1(C(=O)O)CCCC1; Aze = O=C(O)[C@@H]1CCN1; Sar = CNCC(=O)O

Assay [1] addresses GDP-bound HRAS wild-type protein (Homo sapiens, UniProt P01112). Briefly: Binding to HRAS by surface plasmon resonance (SPR), Single Cycle Kinetics.
In assay [2] the target is GDP-bound NRAS wild-type protein (Homo sapiens, UniProt P01111). Briefly: Binding to NRAS by surface plasmon resonance (SPR), Single Cycle Kinetics. (In general: In SPR one partner is held on a chip, and binding of the other changes the refractive index at the surface.)
Chain of GDP-bound NRAS wild-type protein (P01111 whole entry): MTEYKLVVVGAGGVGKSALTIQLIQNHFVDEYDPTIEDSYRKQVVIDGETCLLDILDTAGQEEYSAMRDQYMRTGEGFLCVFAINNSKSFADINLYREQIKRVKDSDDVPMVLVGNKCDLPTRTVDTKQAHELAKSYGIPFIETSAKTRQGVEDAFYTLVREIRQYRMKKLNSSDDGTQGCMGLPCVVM

Chain of GDP-bound HRAS wild-type protein (P01112 whole entry): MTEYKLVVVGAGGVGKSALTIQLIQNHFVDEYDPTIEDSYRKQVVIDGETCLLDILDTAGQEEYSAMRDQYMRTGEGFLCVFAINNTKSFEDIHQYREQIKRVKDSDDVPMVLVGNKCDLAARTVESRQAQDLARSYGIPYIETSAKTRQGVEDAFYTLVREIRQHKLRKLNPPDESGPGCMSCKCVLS

On to `CC[C@H](C)[C@@H]1NC(=O)[C@H](CC(C)C)N(C)C(=O)C[C@@H](C(=O)N2CCOCC2)N(C)C(=O)[C@H](C2CCCC2)N(C)C(=O)C2(CCCC2)NC(=O)[C@@H]2CCCN2C(=O)[C@H](CCc2cc(F)c(C(F)(F)F)c(F)c2)NC(=O)CN(C)C(=O)[C@H](Cc2ccc(C(F)(F)F)cc2)N2CCCCC[C@@H](C2=O)N(C)C(=O)[C@H](C)NC1=O` [PP0481], for which the “HRAS/KRAS (ratio of KD value with respect to GDP-bound HRAS wild-type protein to KD value with respect to KRAS)” value in assay [1] (SPR) was “B (a compound having 3 or more and less than 10 is denoted as B)”. Besides, in assay [2] (SPR), the “NRAS/KRAS (ratio of KD value with respect to GDP-bound NRAS wild-type protein to KD value with respect to KRAS)” value was “B (a compound having 3 or more and less than 10 is denoted as B)”.
For the molecule `CC[C@H](C)[C@@H]1NC(=O)[C@H](COC)N(C)C(=O)C[C@@H](C(=O)N(C)C)N(C)C(=O)[C@H](C2CCCC2)N(C)C(=O)C2(CC(C)(C)C2)NC(=O)[C@@H]2C[C@@H](OC3CCCC3)CN2C(=O)[C@H](CCc2cc(F)c(C(F)(F)F)c(F)c2)NC(=O)CN(C)C(=O)[C@H](Cc2ccc(C)cc2)N2CC/C=C\C[C@@H](C2=O)N(C)C(=O)CN(C2CC2)C1=O` [PP2626], the “HRAS/KRAS (ratio of KD value with respect to GDP-bound HRAS wild-type protein to KD value with respect to KRAS)” value in assay [1] (class symbols) is “A (a compound having 10 or more and less than 20 is denoted as A)”. Also, the “NRAS/KRAS (ratio of KD value with respect to GDP-bound NRAS wild-type protein to KD value with respect to KRAS)” value in assay [2] (class symbols) was “A (a compound having 10 or more and less than 20 is denoted as A)”.
Take `CC[C@H](C)[C@@H]1NC(=O)[C@H](CC(C)C)N(C)C(=O)C[C@@H](C(=O)N(C)C)N(C)C(=O)[C@H](C2CCCC2)N(C)C(=O)C2(CCCC2)NC(=O)[C@@H]2CCCN2C(=O)[C@H](CCc2ccc(C(F)(F)F)c(Cl)c2)NC(=O)CN(C)C(=O)[C@H](Cc2ccc(C)cc2)N2CC=CCOC[C@H](C2=O)N(C)C(=O)CN(C)C1=O` [PP0629]: the “HRAS/KRAS (ratio of KD value with respect to GDP-bound HRAS wild-type protein to KD value with respect to KRAS)” value in assay [1] (SPR) is “C (A compound having a KD ratio of 0.1 or more and less than 3 is denoted as C)”. In addition, the “NRAS/KRAS (ratio of KD value with respect to GDP-bound NRAS wild-type protein to KD value with respect to KRAS)” value in assay [2] (SPR) was “B (a compound having 3 or more and less than 10 is denoted as B)”.
On to `CCCN1C(=O)[C@@H]2CCN2C(=O)CN(C)C(=O)[C@H]([C@@H](C)CC)NC(=O)[C@H](CC(C)C)N(C)C(=O)C[C@@H](C(=O)N(C)C)N(C)C(=O)[C@H](C2CCCC2)N(C)C(=O)C2(CCCC2)NC(=O)[C@@H]2CC(F)(F)CN2C(=O)[C@H](CCc2ccc(C(F)(F)F)c(Cl)c2)NC(=O)CN(C)C(=O)[C@@H]1Cc1ccc(C(F)(F)F)cc1` [PP0442] ([NMeL]I[Sar][Aze][NPrPhe(4-CF3)][Sar][hPhe(3-Cl-4-CF3)][Pro(4,4-F2)][Ac5c][NMeGly(cPent)][NMeD]-NMe2; lactam N-11), for which the “HRAS/KRAS (ratio of KD value with respect to GDP-bound HRAS wild-type protein to KD value with respect to KRAS)” value in assay [1] (SPR) was “C (A compound having a KD ratio of 0.1 or more and less than 3 is denoted as C)”. Moreover, the “NRAS/KRAS (ratio of KD value with respect to GDP-bound NRAS wild-type protein to KD value with respect to KRAS)” value in assay [2] (SPR) was “C (A compound having a KD ratio of 0.1 or more and less than 3 is denoted as C)”.
Regarding `CC[C@H](C)[C@@H]1NC(=O)[C@H](C(C)C)N(C)C(=O)C[C@@H](C(=O)N(C)CC)N(C)C(=O)[C@H](C2CCCC2)N(C)C(=O)C2(CCC2)NC(=O)[C@@H]2C[C@H](C)CN2C(=O)[C@H](CCc2cc(F)c(C(F)(F)F)c(F)c2)NC(=O)CN(C)C(=O)[C@H](Cc2ccc(C(F)(F)F)cc2)N2CC/C=C\C[C@@H](C2=O)N(C)C(=O)CN(C)C1=O` [PP2078], the “HRAS/KRAS (ratio of KD value with respect to HRAS to KD value with respect to KRAS)” value in assay [1] (SPR, GDP-bound HRAS wild-type vs GDP-bound KRAS wild-type) is “A (a compound having 10 or more and less than 20 is denoted as A)”. Besides, the “NRAS/KRAS (ratio of KD value with respect to NRAS to KD value with respect to KRAS)” value in assay [2] (SPR, GDP-bound NRAS wild-type vs GDP-bound KRAS wild-type) is “AA (a compound having 20 or more is denoted as AA)”.
For `CCO[C@@H]1C[C@H]2C(=O)NC3(CCC3)C(=O)N(C)[C@@H](C3CCCC3)C(=O)N(C)[C@H](C(=O)N3CCOCC3)CC(=O)N(C)[C@@H](Cc3cccnc3)C(=O)N[C@@H]([C@@H](C)CC)C(=O)N(C)CC(=O)N(C)[C@H]3CCCCN(C3=O)[C@@H](Cc3ccc(C(F)(F)F)cc3)C(=O)N(C)CC(=O)N[C@@H](CCc3cc(F)c(C(F)(F)F)c(F)c3)C(=O)N2C1` [PP0718], the “HRAS/KRAS (ratio of KD value with respect to GDP-bound HRAS wild-type protein to KD value with respect to KRAS)” value in assay [1] (SPR) was “B (a compound having 3 or more and less than 10 is denoted as B)”. Further, the “NRAS/KRAS (ratio of KD value with respect to GDP-bound NRAS wild-type protein to KD value with respect to KRAS)” value in assay [2] (SPR) was “C (A compound having a KD ratio of 0.1 or more and less than 3 is denoted as C)”.
With `CC[C@H](C)[C@@H]1NC(=O)[C@H](CC(C)C)N(C)C(=O)C[C@@H](C(=O)N2CCOCC2)N(C)C(=O)[C@H](C2CCCC2)N(C)C(=O)C2(CCCC2)NC(=O)[C@@H]2CCCN2C(=O)[C@H](CCc2ccc(C(F)(F)F)c(Cl)c2)NC(=O)CN(C)C(=O)[C@H](Cc2ccccc2)N2CCCCC[C@@H](C2=O)N(C)C(=O)CN(C)C1=O` [PP0611], the “HRAS/KRAS (ratio of KD value with respect to GDP-bound HRAS wild-type protein to KD value with respect to KRAS)” value in assay [1] (SPR) is “B (a compound having 3 or more and less than 10 is denoted as B)”. Besides, in assay [2] (SPR), the “NRAS/KRAS (ratio of KD value with respect to GDP-bound NRAS wild-type protein to KD value with respect to KRAS)” value was “B (a compound having 3 or more and less than 10 is denoted as B)”.
